Experimental data taken from patent publication US9359371B2, “Bicyclic substituted pyrimidine compounds” (Xuanzhu Pharma Co., Ltd., priority 2012, dated 2016).
Where two headings read alike, the source gives them in different places.

Assays:
[1] = Pharmacokinetics (PK) in SD rats; type: in vivo; settings: rat; for AUC(0-inf) / Cmax / Tmax / half-life / bioavailability: SD, plasma; for bioavailability: read-out: F % (absolute bioavailability)
Protocol: Experiment 9: Assay of Pharmacokinetics (PK) of the Compounds of the Present Invention in SD Rats
Compound 1-54 of the present invention were prepared by the methods described in Example 1 to Example 54 of the present invention.
The control drug Avanafil, of which the structure was stated above, was purchased commercially.
Collection of the rat's blood: The animal was fixed. The tail was warmed with a water bath 10 min before the collection time. About 200 μL of whole blood was collected from the tail vein. The collected blood was collected into anticoagulant tubes containing heparin sodium. The blood samples were centrifuged at 4° C. by 8000 rpm for 6 min to give the plasma samples, which should be prepared within 30 min after the collection of blood. The plasma samples were stored in a freezer of −80° C. until test.
The result output by Analyst 1.5.1 of AB Company was used as the concentration of the tested sample (plasma sample). The mean value, standard deviation, variable coefficient and the like were calculated by Microsoft Excel (except for the result directly output by Analyst 1.5.1). Parameters of PK were calculated by Pharsight Phoenix 6.2 software. Formula for calculating oral bioavailability: F %=AUCinf−po*Doseiv/AUCinf−iv*Dosepo.

PDE-5A enzyme = PDE-5A enzyme (Homo sapiens (Human), UniProt O76074); assay: Caliper Mobility-Shift PDE-5A Assay; type: biochemical; settings: Table 1; Avanafil value is the control
Protocol: Experiment 1: Measurement of Enzymatic Activity In Vitro
PDE-5A enzyme: humanized PDE-5 enzyme, SignalChem, Cat#93-31G-20.
Method: enzyme assay, Caliper Mobility-Shift PDE-5A Assay:
The test compound was accurately weighed, dissolved in DMSO, mixed thoroughly and formulated into 10 mM.
The maximum final concentration of the compound was 10 μM. The plate was incubated at 30° C. for 1 h, and 20 μL of 70 μM EDTA was then added to stop the reaction. 26 μL of solution of each well was transferred to a 384-well plate. The conversion was read on a EZ reader II. The inhibition rate was calculated by the formula below, and used to calculate IC50 by Prism 5.0 Inhibition rate=[Conversion (ZPE)−Conversion (sample)]×100/[Conversion (ZPE)−Conversion (HPE)]
Note: HPE: control without enzyme; ZPE: control without a test compound

[2] = po, intragastric administration, 2 mg/kg
[3] = po, intragastric administration, 5 mg/kg

COc1ccc(CNc2nc(N3CC4CC4C3)ncc2C(=O)NCc2ccccn2)cc1Cl (centres unmarked) [Compound 2, 2-(3-azabicyclo[3.1.0]hexan-3-yl)-4-((3-chloro-4-methoxybenzyl)amino)-N-(pyridin-2-ylmethyl)pyrimidine-5-formamide]
AUC(0-inf) [1, 2]: 69 ng·h/mL | Cmax [1, 2]: 12 ng/mL | Tmax [1, 2]: 1 h | half-life [1, 2]: 2.95 h | bioavailability [1, 2]: 12% | AUC(0-inf) ([1]; intravenous injection, 1 mg/kg): 219 ng·h/mL | half-life ([1]; intravenous injection, 1 mg/kg): 1.78 h | Cl_obs ([1]; intravenous injection, 1 mg/kg): 77.2 mL/min/kg | Vss_obs ([1]; intravenous injection, 1 mg/kg): 10.57 L/kg

COc1ncc(CNc2nc(N3CC4CC4C3)ncc2C(=O)NCc2ncccn2)cc1Cl (centres unmarked) [Compound 25, 2-(3-diazabicyclo[3.1.0]hexan-3-yl)-4-(((5-chloro-6-methoxypyridin-3-yl)methyl)amino)-N-(pyrimidin-2-ylmethyl)pyrimidine-5-formamide]
IC50 (PDE-5A enzyme): 47 nM

COc1ccc(CNc2nc(N3CC4CC4C3CO)ncc2C(=O)NCc2ncccn2)cc1Cl (centres unmarked) [Compound 27, 4-((3-chloro-4-methoxybenzyl)amino)-2-(2-(hydroxylmethyl)-3-azabicyclo[3.1.0]hexan-3-yl)-N-(pyrimidin-2-ylmethyl)pyrimidine-5-formamide]
IC50 (PDE-5A enzyme): 10.4 nM

CCOc1ccc(CNc2nc(N3CC4CC4C3)ncc2C(=O)N[C@H]2CC[C@H](O)CC2)cc1C (stereo partly drawn) [Compound 51, 2-(3-azabicyclo[3.1.0]hexan-3-yl)-N-(trans-4-hydroxycyclohexyl)-4-((4-ethoxy-3-methylbenzyl)amino)pyrimidine-5-formamide]
AUC(0-inf) [1, 3]: 5800 ng·h/mL | Cmax [1, 3]: 402 ng/mL | Tmax [1, 3]: 6 h | half-life [1, 3]: 7.3 h | bioavailability [1, 3]: 52% | AUC(0-inf) ([1]; intravenous injection, 2 mg/kg): 4400 ng·h/mL | half-life ([1]; intravenous injection, 2 mg/kg): 8.8 h | Cl_obs ([1]; intravenous injection, 2 mg/kg): 7.83 mL/min/kg | Vss_obs ([1]; intravenous injection, 2 mg/kg): 5.58 L/kg

COc1ccc(CNc2nc(N3CCC4(CCC4)C3)ncc2C(=O)NCc2ccccc2)cc1Cl [Compound 28, N-benzyl-4-((3-chloro-4-methoxybenzyl)amino)-2-(6-azaspiro[3.4]octan-6-yl)pyrimidine-5-formamide]
IC50 (PDE-5A enzyme): 22.6 nM

COc1ccc(CNc2nc(N3CC4CC4C3CO)ncc2C(=O)NCc2ccccn2)cc1Cl (centres unmarked) [Compound 37, 4-((3-chloro-4-methoxybenzyl)amino)-2-(2-(hydroxymethyl)-3-azabicyclo[3.1.0]hexan-3-yl)-N-(pyridin-2-ylmethyl)pyrimidine-5-formamide]
IC50 (PDE-5A enzyme): 33.3 nM

COc1ccc(CNc2nc(N3CCC4(CC4)C3)ncc2C(=O)NCc2ncccn2)cc1Cl [Compound 41, 4-((3-chloro-4-methoxybenzyl)amino)-N-(pyrimidin-2-ylmethyl)-2-(5-azaspiro[2.4]heptan-5-yl)pyrimidine-5-formamide]
IC50 (PDE-5A enzyme): 22.9 nM | AUC(0-inf) [1, 2]: 67 ng·h/mL | Cmax [1, 2]: 43.8 ng/mL | Tmax [1, 2]: 0.5 h | half-life [1, 2]: 0.91 h | bioavailability [1, 2]: 17.7% | AUC(0-inf) ([1]; intravenous injection, 1 mg/kg): 188 ng·h/mL | half-life ([1]; intravenous injection, 1 mg/kg): 0.83 h | Cl_obs ([1]; intravenous injection, 1 mg/kg): 89.2 mL/min/kg | Vss_obs ([1]; intravenous injection, 1 mg/kg): 6.62 L/kg

CCOc1ccc(CNc2nc(N3CC4CC4C3)ncc2C(=O)N[C@H]2CC[C@H](O)CC2)cc1F (stereo partly drawn) [Compound 49, 2-(3-azabicyclo[3.1.0]hexan-3-yl)-4-((3-fluoro-4-ethoxybenzyl)amino)-N-((trans)-4-hydroxycyclohexyl)pyrimidine-5-formamide]
AUC(0-inf) [1, 3]: 5840 ng·h/mL | Cmax [1, 3]: 505 ng/mL | Tmax [1, 3]: 4 h | half-life [1, 3]: 4.1 h | bioavailability [1, 3]: 60% | AUC(0-inf) ([1]; intravenous injection, 2 mg/kg): 3860 ng·h/mL | half-life ([1]; intravenous injection, 2 mg/kg): 3.9 h | Cl_obs ([1]; intravenous injection, 2 mg/kg): 8.67 mL/min/kg | Vss_obs ([1]; intravenous injection, 2 mg/kg): 2.46 L/kg

CCOc1ccc(CNc2nc(N3CC4CC4C3)ncc2C(=O)N[C@H]2CC[C@H](O)CC2)cc1C(F)(F)F (stereo partly drawn) [Compound 54, 2-(3-azabicyclo[3.1.0]hexan-3-yl)-N-((trans)-4-hydroxycyclohexyl)-4-((4-ethoxy-3-(trifluoromethyl)benzyl)amino)pyrimidine-5-formamide]
AUC(0-inf) [1, 3]: 1420 ng·h/mL | Cmax [1, 3]: 200 ng/mL | Tmax [1, 3]: 4 h | half-life [1, 3]: 2.7 h | bioavailability [1, 3]: 40% | AUC(0-inf) ([1]; intravenous injection, 2 mg/kg): 1430 ng·h/mL | half-life ([1]; intravenous injection, 2 mg/kg): 2.3 h | Cl_obs ([1]; intravenous injection, 2 mg/kg): 23.8 mL/min/kg | Vss_obs ([1]; intravenous injection, 2 mg/kg): 3.87 L/kg

COc1ccc(CNc2nc(N3CCC4(CC4)C3)ncc2C(=O)NCCN2CCOCC2)cc1Cl [Compound 39, 4-((3-chloro-4-methoxybenzyl)amino)-N-(2-morpholinoethyl)-2-(5-azaspiro[2.4]heptan-5-yl)pyrimidine-5-formamide]
IC50 (PDE-5A enzyme): 21.4 nM

COc1ccc(CNc2nc(N3CCC4(CC4)C3)ncc2C(=O)N[C@H]2CC[C@H](O)CC2)cc1Cl (stereo in doubt) [Compound 43, 4-((3-chloro-4-methoxybenzyl)amino)-N-(trans-4-hydroxycyclohexyl)-2-(5-azaspiro[2.4]heptan-5-yl)pyrimidine-5-formamide]
IC50 (PDE-5A enzyme): 15.4 nM | half-life [1, 2]: 3.31 h | bioavailability [1, 2]: 18% | half-life ([1]; intravenous injection, 1 mg/kg): 1.3 h | Cl_obs ([1]; intravenous injection, 1 mg/kg): 53.8 mL/min/kg | Vss_obs ([1]; intravenous injection, 1 mg/kg): 5.18 L/kg

COc1ccc(CNc2nc(N3CC4CC4C3CO)ncc2C(=O)NCc2ccccc2)cc1Cl (centres unmarked) [Compound 32, N-benzyl-4-((3-chloro-4-methoxybenzyl)amino)-2-(2-(hydroxymethyl)-3-azabicyclo[3.1.0]hexan-3-yl)pyrimidine-5-formamide]
IC50 (PDE-5A enzyme): 4.63 nM | AUC(0-inf) [1, 2]: 24 ng·h/mL | Cmax [1, 2]: 6.5 ng/mL | Tmax [1, 2]: 0.5 h | half-life [1, 2]: 2.26 h | bioavailability [1, 2]: 3.5% | AUC(0-inf) ([1]; intravenous injection, 1 mg/kg): 212 ng·h/mL | half-life ([1]; intravenous injection, 1 mg/kg): 1.68 h | Cl_obs ([1]; intravenous injection, 1 mg/kg): 80.2 mL/min/kg | Vss_obs ([1]; intravenous injection, 1 mg/kg): 12.05 L/kg

COc1ccc(CNc2nc(N3CC4CC4C3CO)ncc2C(=O)N[C@H]2CC[C@H](O)CC2)cc1Cl (stereo partly drawn) [Compound 35, 4-((3-chloro-4-methoxybenzyl)amino)-N-(trans-4-hydroxycyclohexyl)-2-(2-(hydroxymethyl)-3-azabicyclo[3.1.0]hexan-3-yl)pyrimidine-5-formamide]
IC50 (PDE-5A enzyme): 47.2 nM

COc1ccc(CNc2nc(N3CCC4(CC3)CC4)ncc2C(=O)NCc2ncccn2)cc1Cl [Compound 15, 4-((3-chloro-4-methoxybenzyl)amino)-N-(pyrimidin-2-ylmethyl)-2-(6-azaspiro[2.5]octan-6-yl)pyrimidine-5-formamide]
IC50 (PDE-5A enzyme): 26.8 nM

COc1ccc(CNc2nc(N3CCC4(CC4)C3)ncc2C(=O)NCc2ccccc2)cc1Cl [Compound 21, N-benzyl-4-((3-chloro-4-methoxybenzyl)amino)-2-(5-azaspiro[2.4]heptan-5-yl)pyrimidine-5-formamide]
IC50 (PDE-5A enzyme): 17.3 nM

CCOc1ccc(CNc2nc(N3CC4CC4C3)ncc2C(=O)N[C@H]2CC[C@H](O)CC2)cc1Cl (stereo partly drawn) [Compound 52, 2-(3-azabicyclo[3.1.0]hexan-3-yl)-4-((3-chloro-4-ethoxybenzyl)amino)-N-((trans)-4-hydroxycyclohexyl)pyrimidine-5-formamide]
AUC(0-inf) [1, 3]: 6000 ng·h/mL | Cmax [1, 3]: 392 ng/mL | Tmax [1, 3]: 6 h | half-life [1, 3]: 8.4 h | bioavailability [1, 3]: 65% | AUC(0-inf) ([1]; intravenous injection, 2 mg/kg): 3710 ng·h/mL | half-life ([1]; intravenous injection, 2 mg/kg): 4.6 h | Cl_obs ([1]; intravenous injection, 2 mg/kg): 9 mL/min/kg | Vss_obs ([1]; intravenous injection, 2 mg/kg): 3.02 L/kg

COc1ccc(CNc2nc(N3CC4CC4C3)ncc2C(=O)N[C@H]2CC[C@H](O)CC2)cc1C(F)(F)F (stereo partly drawn) [Compound 53, 2-(3-azabicyclo[3.1.0]hexan-3-yl)-N-((trans)-4-hydroxycyclohexyl)-4-((4-methoxy-3-(trifluoromethyl)benzyl)amino)pyrimidine-5-formamide]
AUC(0-inf) [1, 3]: 917 ng·h/mL | Cmax [1, 3]: 156 ng/mL | Tmax [1, 3]: 4 h | bioavailability [1, 3]: 25% | AUC(0-inf) ([1]; intravenous injection, 2 mg/kg): 1500 ng·h/mL | half-life ([1]; intravenous injection, 2 mg/kg): 1.8 h | Cl_obs ([1]; intravenous injection, 2 mg/kg): 22.3 mL/min/kg | Vss_obs ([1]; intravenous injection, 2 mg/kg): 2.33 L/kg

COc1ccc(CNc2nc(N3CC4CC4C3CO)ncc2C(=O)NCCN2CCOCC2)cc1Cl (centres unmarked) [Compound 34, 4-((3-chloro-4-methoxybenzyl)amino)-2-(2-(hydroxymethyl)-3-azabicyclo[3.1.0]hexan-3-yl)-N-(2-morpholinoethyl)pyrimidine-5-formamide]
IC50 (PDE-5A enzyme): 34.9 nM

COc1ccc(CNc2nc(N3CCC4(CC3)CC4)ncc2C(=O)N[C@H]2CC[C@H](O)CC2)cc1Cl [Compound 36, 4-((3-chloro-4-methoxybenzyl)amino)-N-(trams-4-hydroxycyclohexyl)-2-(6-azaspiro[2.5]octan-6-yl)pyrimidine-5-formamide]
IC50 (PDE-5A enzyme): 52.4 nM
